The test system of series [1] is immobility time. Particulars: cited from earlier work.
In series [2] the test system is marble burying. Particulars: cited from earlier work.
Series [3] deals with T1, rat mGlu2 (Rattus norvegicus, UniProt P31421). Particulars: cited from earlier work.
For series [4], the target named is T2, rat mGlu5 (Rattus norvegicus, UniProt P31424). Particulars: cited from earlier work.
Series [5] addresses T1, rat mGlu2. Kind of series: mGlu2 calcium mobilization assay. The following applies: full CRC. In kind it is cell-based.
Series [6] has as its target T2, rat mGlu5. Kind of series: Calcium mobilization mGlu5 assay. Type of series: cell-based. Particulars: calcium mobilization; average of n ≥ 3 (n = 2 where marked). For orientation: Calcium flux is commonly read through the fluorescence of an indicator in the cells.
Series [7] is described as follows: Rat cassette PK study, IV dosing. Particulars: in vivo, 0.2 mg/kg.
Series [8] has as its target T3, rat mGlu3 (Rattus norvegicus, UniProt P31422). The following applies: calcium mobilization; average of n ≥ 3.
The nature of series [9]: Intrinsic clearance in rat liver microsomes. Type of series: in vitro ADME. The following applies: predicted hepatic clearance based on intrinsic clearance in rat liver microsomes.
Series [10] concerns the target T3, rat mGlu3. Briefly: cell-based.
The next series relates to other mGlus. In kind it is cell-based. The following applies: 10 μM compound, fold-shift experiments.
The nature of a further series: Mouse IP PK time course. Type of series: in vivo. The following applies: 10 mg/kg dose in marble burying study, estimated from DMPK data.
In series [11] the test system is marble burying. Briefly: Marble burying assay in mice. Particulars: 56.6 mg/kg; male CD-1 mice; 15 min pretreatment.
In the next series the target is 5-HT2B (Homo sapiens, UniProt P41595). Kind of series: 5-HT2B functional cell-based assay. The following applies: agonist or antagonist.
Sequence of 5-HT2B (P41595 whole entry, species assumed): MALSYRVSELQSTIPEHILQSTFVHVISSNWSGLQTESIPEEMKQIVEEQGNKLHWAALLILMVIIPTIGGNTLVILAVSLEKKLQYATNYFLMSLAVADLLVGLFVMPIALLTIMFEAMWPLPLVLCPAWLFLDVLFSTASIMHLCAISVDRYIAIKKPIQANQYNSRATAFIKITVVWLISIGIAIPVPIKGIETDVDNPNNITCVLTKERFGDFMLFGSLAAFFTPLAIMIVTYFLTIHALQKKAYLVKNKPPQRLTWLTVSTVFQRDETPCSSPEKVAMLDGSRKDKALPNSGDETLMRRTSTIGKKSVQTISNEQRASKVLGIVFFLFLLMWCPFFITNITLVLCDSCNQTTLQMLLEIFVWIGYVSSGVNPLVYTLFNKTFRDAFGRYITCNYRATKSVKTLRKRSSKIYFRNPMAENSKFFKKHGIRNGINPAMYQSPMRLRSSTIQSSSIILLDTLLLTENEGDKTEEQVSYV
A short description of series [12]: Mouse IP single time point tissue distribution. Particulars: in vivo, 10 mg/kg, plasma concentration, 30 min post dose, n = 3.
The subject of series [13] is immobility time. Kind of series: Forced swim test. The following applies: 56.6 mg/kg (highest dose); male Sprague–Dawley rats; 30 min pretreatment; 6 min session; p < 0.05 vs vehicle. Type of series: in vivo, rat.
The subject of series [14] is panel of 68 clinically relevant GPCRs, ion channels, kinases, and transporters. In kind it is binding. The following applies: 10 μM; 68 targets.
The target in a further series is mGlu3 (Rattus norvegicus, UniProt P31422). The following applies: multiple concentrations of compound.
Sequence of mGlu3 (P31422 23-879): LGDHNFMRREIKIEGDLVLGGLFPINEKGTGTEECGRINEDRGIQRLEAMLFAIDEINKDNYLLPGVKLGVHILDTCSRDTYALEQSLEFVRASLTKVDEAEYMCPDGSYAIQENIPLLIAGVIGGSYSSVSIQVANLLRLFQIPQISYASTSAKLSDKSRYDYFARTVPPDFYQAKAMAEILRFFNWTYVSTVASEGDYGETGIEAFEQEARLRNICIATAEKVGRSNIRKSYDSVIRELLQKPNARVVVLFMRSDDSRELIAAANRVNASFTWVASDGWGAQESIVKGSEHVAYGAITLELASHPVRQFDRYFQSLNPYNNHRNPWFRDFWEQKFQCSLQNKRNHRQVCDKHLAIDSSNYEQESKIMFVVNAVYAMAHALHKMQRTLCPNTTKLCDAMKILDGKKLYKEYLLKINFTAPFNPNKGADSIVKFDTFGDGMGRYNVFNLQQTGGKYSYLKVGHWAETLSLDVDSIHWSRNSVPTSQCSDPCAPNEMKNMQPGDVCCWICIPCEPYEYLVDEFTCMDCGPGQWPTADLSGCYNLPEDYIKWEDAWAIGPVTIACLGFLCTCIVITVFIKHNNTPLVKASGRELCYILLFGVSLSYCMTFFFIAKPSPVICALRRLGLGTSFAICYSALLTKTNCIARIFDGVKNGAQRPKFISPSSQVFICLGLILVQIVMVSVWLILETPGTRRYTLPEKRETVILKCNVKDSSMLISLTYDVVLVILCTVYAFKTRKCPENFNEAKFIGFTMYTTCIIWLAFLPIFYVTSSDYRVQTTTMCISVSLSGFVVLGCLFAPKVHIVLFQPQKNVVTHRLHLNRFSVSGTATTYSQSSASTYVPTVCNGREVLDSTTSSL

T2 sequence (P31424 21-1203): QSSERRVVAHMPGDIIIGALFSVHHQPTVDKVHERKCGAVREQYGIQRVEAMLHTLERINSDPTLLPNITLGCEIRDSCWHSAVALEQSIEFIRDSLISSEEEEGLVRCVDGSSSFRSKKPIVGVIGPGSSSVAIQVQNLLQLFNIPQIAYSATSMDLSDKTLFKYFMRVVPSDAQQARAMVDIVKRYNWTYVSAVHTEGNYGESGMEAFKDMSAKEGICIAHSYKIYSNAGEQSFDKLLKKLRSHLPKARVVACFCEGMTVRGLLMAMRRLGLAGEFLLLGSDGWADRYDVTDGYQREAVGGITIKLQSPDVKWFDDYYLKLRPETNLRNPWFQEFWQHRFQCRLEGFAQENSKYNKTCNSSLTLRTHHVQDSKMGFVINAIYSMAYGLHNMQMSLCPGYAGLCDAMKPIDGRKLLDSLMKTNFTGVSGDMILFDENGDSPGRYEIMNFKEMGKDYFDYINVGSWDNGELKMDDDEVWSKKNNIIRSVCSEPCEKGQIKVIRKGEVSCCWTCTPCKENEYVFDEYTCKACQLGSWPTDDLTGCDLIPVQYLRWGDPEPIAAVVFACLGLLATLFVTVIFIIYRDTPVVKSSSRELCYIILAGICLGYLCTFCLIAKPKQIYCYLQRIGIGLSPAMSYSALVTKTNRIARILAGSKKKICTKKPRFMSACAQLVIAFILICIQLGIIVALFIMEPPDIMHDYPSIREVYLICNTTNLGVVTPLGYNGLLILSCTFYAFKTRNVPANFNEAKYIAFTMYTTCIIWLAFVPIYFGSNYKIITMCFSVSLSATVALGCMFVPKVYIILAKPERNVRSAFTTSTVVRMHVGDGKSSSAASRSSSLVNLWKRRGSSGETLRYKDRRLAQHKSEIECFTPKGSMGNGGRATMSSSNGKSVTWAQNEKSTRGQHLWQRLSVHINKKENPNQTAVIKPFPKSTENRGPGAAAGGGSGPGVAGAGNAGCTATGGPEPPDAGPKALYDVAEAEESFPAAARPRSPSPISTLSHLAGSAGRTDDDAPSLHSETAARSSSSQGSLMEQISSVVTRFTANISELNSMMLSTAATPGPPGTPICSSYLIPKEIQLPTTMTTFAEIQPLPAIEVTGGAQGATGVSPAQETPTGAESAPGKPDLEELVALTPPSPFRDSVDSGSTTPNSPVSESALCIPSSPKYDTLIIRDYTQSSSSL
T1 sequence (P31421 19-872): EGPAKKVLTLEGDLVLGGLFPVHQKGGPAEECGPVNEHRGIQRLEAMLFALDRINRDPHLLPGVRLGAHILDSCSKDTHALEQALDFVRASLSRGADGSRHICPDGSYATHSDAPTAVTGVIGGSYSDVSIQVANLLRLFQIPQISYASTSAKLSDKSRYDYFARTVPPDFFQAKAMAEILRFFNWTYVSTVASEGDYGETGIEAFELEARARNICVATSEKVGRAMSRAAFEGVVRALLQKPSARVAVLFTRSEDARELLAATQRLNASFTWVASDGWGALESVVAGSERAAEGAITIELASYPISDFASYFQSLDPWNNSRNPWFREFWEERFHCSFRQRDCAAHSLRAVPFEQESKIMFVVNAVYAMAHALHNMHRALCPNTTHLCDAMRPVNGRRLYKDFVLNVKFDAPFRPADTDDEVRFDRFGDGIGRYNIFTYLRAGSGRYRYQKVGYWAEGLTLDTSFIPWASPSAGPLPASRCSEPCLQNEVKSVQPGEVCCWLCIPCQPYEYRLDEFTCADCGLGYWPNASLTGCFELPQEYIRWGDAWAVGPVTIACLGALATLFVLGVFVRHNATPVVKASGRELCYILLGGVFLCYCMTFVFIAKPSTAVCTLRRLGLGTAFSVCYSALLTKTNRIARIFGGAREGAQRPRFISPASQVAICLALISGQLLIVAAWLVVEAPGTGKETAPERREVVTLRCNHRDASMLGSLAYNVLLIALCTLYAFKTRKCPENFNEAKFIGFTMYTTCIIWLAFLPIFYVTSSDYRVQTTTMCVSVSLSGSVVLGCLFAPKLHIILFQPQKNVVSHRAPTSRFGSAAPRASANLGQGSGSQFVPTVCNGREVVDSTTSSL
T3 sequence (P31422 23-879): as the sequence (P31422 23-879) above

Turning to `N[C@](CC1c2ccccc2Oc2ccccc21)(C(=O)O)[C@H]1C[C@@H]1C(=O)O` [Compound 1], the “efficacy in FST” value with immobility time [1] is listed as “efficacy”. The “inhibition of marble burying” value with marble burying [2] was “previously shown to inhibit marble burying”.
For `N[C@]1(C(=O)O)[C@H]2[C@@H](C[C@H]1OCc1ccc(Cl)c(Cl)c1)[C@]2(F)C(=O)O` [Compound 2], the “efficacy in FST” value in the series on immobility time [1] was “efficacy”. In addition, the “inhibition of marble burying” value with marble burying [2] is “previously shown to inhibit marble burying”.
In the case of `COc1ccc(C#Cc2ccc(C(=O)N3CCC[C@@H](CO)C3)cc2)cc1` [Compound 7], the “selectivity versus mGlu2” value at rat mGlu2 [3] is over 15 fold.
For `COc1ccc(C#Cc2ccc(C(=O)N3CCC[C@@H](O)C3)c(F)c2)cc1` [Compound 8], the “mGlu5 activity” value at rat mGlu5 [4] is “devoid of both mGlu2 and mGlu5 activity”. Besides, the “mGlu2 activity” value on rat mGlu2 [3] was “devoid of both mGlu2 and mGlu5 activity”.
As for `C[C@@H]1CN(c2ccc(F)cc2)C(=O)c2cc(COc3ccccn3)nn21` [Compound 10], at rat mGlu2 [5], the “mGlu2: inactive up to the top concentration tested” value is over 30 µM.
In the case of `C[C@@H]1CN(c2ccc(F)cc2)C(=O)c2cc(COc3ccc(F)cc3)nn21` [Compound 24], the “mGlu5 pEC50 (± SEM)” value at rat mGlu5 [6] stood at 7.03 ± 0.05. The half-life in [7] was over 1.5 h. In addition, the “mGlu3 pIC50 (± SEM)” value at rat mGlu3 [8] is on record as 6.34 ± 0.04.
`C[C@@H]1CN(c2ccc(F)cc2)C(=O)c2cc(COc3ccc(Cl)cn3)nn21` [Compound 48] showed a half-life in series [7] of about 2 h.
`C[C@@H]1CN(c2cc(F)cc(C#N)c2)C(=O)c2cc(COc3ccc(Cl)cn3)nn21` [Compound 99] returned a half-life in series [7] of over 3 h. Further, the “rat CLhep” value in [9] is 47.7 mL/min/kg. The compound also gave an IC50 at rat mGlu3 [10] of 529 nM.
`C[C@@H]1CN(c2ccccn2)C(=O)c2cc(COc3ccc(Cl)cn3)nn21` [Compound 100]: the “mGlu5 pEC50 (± SEM)” value at rat mGlu5 [6] was under 4.5. On rat mGlu3 [8], the “mGlu3 pIC50 (± SEM)” value is listed as 6.48 ± 0.07. Besides, the “rat CLhep” value in [9] was 69.5 mL/min/kg.
Take `C[C@@H]1CN(c2cccnc2)C(=O)c2cc(COc3ccc(Cl)cn3)nn21` [Compound 101]: the “mGlu5 pEC50 (± SEM)” value at rat mGlu5 [6] is given as under 4.5. In addition, the “mGlu3 pIC50 (± SEM)” value on rat mGlu3 [8] is 6.22 ± 0.10. Moreover, the “rat CLhep” value in [9] is listed as 42.0 mL/min/kg.
`C[C@@H]1CN(c2cccnc2F)C(=O)c2cc(COc3ccc(Cl)cn3)nn21` [Compound 106, (R)-2-(((5-Chloropyridin-2-yl)oxy)methyl)-5-(2-fluoropyridin-3-yl)-7-methyl-6,7-dihydropyrazolo[1,5-a]pyrazin-4(5H)-one]: the “effect on the orthosteric agonist CRC, other mGlus” value in the series with other mGlus was “No significant effect”. Also, the “estimated peak CNS unbound exposure” value in the series “Mouse IP PK time course” is 564 nM. Moreover, the “mGlu5 pEC50 (± SEM)” value at rat mGlu5 [6] is on record as under 4.5. For the same compound, the “inhibition of marble burying at highest dose” value with marble burying [11] is listed as “essentially complete inhibition”. Moreover, the “5-HT2B functional activity: no activity up to” value on 5-HT2B was over 10 µM. The “mGlu2: inactive up to the top concentration tested” value on rat mGlu2 [5] is over 30 µM. This compound registered a concentration at 30 min in series [12] of 2590 ± 290 nM. Further, the “mGlu3 pIC50 (± SEM)” value at rat mGlu3 [8] came to 6.41 ± 0.05. Besides, in the series with immobility time [13], the “decrease in immobility time in FST” value was “significant effects in decreasing immobility time”. The “significant responses (>50% inhibition of radioligand binding) in panel” value in series [14] is “only a single significant response”.
As for `C[C@@H]1CN(c2cnccc2F)C(=O)c2cc(COc3ccc(Cl)cn3)nn21` [Compound 107], the “mGlu5 pEC50 (± SEM)” value at rat mGlu5 [6] is recorded as under 4.5. The “mGlu3 pIC50 (± SEM)” value on rat mGlu3 [8] is recorded as 6.32 ± 0.03. The “rat CLhep” value in series [9] is given as 36.0 mL/min/kg.
Turning to `C[C@@H]1CN(c2cncc(F)c2)C(=O)c2cc(COc3ccc(Cl)cn3)nn21` [Compound 108], at rat mGlu5 [6], the “mGlu5 pEC50 (± SEM)” value is under 4.5. For the same compound, the “rat CLhep” value in series [9] was 26.6 mL/min/kg.
With `C[C@@H]1CN(c2cncc(C#N)c2)C(=O)c2cc(COc3ccc(Cl)cn3)nn21` [Compound 109], the “mGlu5 pEC50 (± SEM)” value at rat mGlu5 [6] is under 4.5. Further, on rat mGlu3 [8], the “mGlu3 pIC50 (± SEM)” value is reported as 6.22 ± 0.01. For the same compound, the “rat CLhep” value in series [9] is recorded as 22.8 mL/min/kg.
With `N#Cc1cc(C2=Nc3ccc(Br)cc3NC(=O)C2)ccn1` [Compound 111], the “effect on the glutamate CRC (progressive fold-shift)” value on mGlu3 is “characteristic rightward shift and depressed glutamate maximum”.

By half-life is commonly meant the time needed for the level to fall by half in the phase considered. The low end stands for rapid decline, the high end for slow decline. As usually defined, the IC50 is the concentration that gives 50% inhibition.

(Values after article PMC4809247 (Journal of medicinal chemistry, 2015).)
